What was measured:
HCMV [1] = assay: Western blot of HCMV proteins (IE1, pUL44, pUL99) in infected fibroblasts; assay type: cell-based, human cytomegalovirus; conditions: 6 to 96 hpi; rapamycin 20 nM, Torin1 250 nM; 3 PFU/cell
Experimental: FIG. 2. […] Serum-starved confluent fibroblasts were infected with HCMV at a multiplicity of 3 PFU/cell. […] Control cultures received the vehicle in which Torin1 was dissolved (NT). At 2 hpi cells were harvested, and cell-associated viral DNA was quantified by real-time PCR analysis. Error bars represent the standard errors of the means from two independent experiments performed in duplicate. […] The level of IE1 was determined at 6 hpi by a Western blot assay using an IE1-specific monoclonal antibody. The image is representative of two independent experiments. […] The expression of a GFP marker gene present in the viral genome was monitored at 24 h after infection in the presence or absence of drug.
(§1) FIG. 3. […] (A) Rapamycin-resistant mTOR activity is required for the accumulation of an some but not all HCMV proteins. […] Cells were harvested at the indicated times, and the accumulation of the indicated proteins was analyzed by Western blotting. […] At the indicated times DNA was isolated, and viral DNA was quantified by qPCR. Equivalent amounts of DNA were analyzed for each sample, and the results are normalized to the level of actin DNA per sample. […] At the indicated times the amount of UL99 RNA was determined by qPCR, and the results are normalized to the amount of actin RNA in each sample.
Cells were lysed in radioimmunoprecipitation assay (RIPA) buffer (50 mM Tris-HCl [pH 7.4], […], 0.25% sodium deoxycholate, 150 mM NaCl, 1 mM EDTA) containing protease inhibitors (complete EDTA free; Roche). Protein concentrations in each lysate were determined by the Bradford assay. 30 μg of protein was analyzed per sample. Proteins in cell lysates were resolved on SDS-containing 10% polyacrylamide gels. Proteins were transferred onto Protran membranes by using a semidry transfer apparatus. […]
Antibodies to pUL99 have been described previously (Silva, et al. J. Virol. (2003) 77:10594-10605). In addition, accumulation of HCMV DNA was monitored following infection using the methods described above.

HCMV [2] = assay: UL99 late transcript level by qPCR; assay type: cell-based, human cytomegalovirus; conditions: rapamycin 20 nM, Torin1 250 nM; 3 PFU/cell
eIF4F complex = assay: m7GTP-Sepharose cap-binding assay, HCMV-infected fibroblasts; assay type: cell-based, human; conditions: rapamycin 20 nM, Torin1 250 nM
Experimental: FIG. 4. Rapamycin-resistant mTOR activity is required for 4EBP1 phosphorylation and eIF4F complex integrity during HCMV infection. Serum-starved confluent human fibroblasts were infected with HCMV at a multiplicity of 3 PFU/cell. […] (A) At 48 hpi the phosphorylation status of mTORC1 targets was assessed by Western blot assay by using antibodies to phosphorylated targets (4EBP1-PT^37/46 and rpS6-PS^235/6) and total proteins. Tubulin was assayed as a loading control. (B) Same as above (A) except that cells were harvested at the indicated times. (C and D) After mock infection (M) or infection with HCMV (WT) at a multiplicity of 3 PFU/cell, cultures were harvested at the indicated times. Equivalent amounts of protein from each sample were incubated with m^7GTP-Sepharose, and the isolated protein complexes were analyzed by Western blotting using the indicated antibodies to the eIF4F complex and 4EBP1. In all cases the results are representative of at least two independent experiments. lys, lysate.
The phosphorylation status of 4EBP1 regulates cap-dependent protein translation. Hypophosphorylated 4EBP1 binds to eIF4E and inhibits the formation of the eIF4F complex, while the phosphorylation of 4EBP1 inhibits its interaction with eIF4E. […]

HCMV [3] = assay: HCMV DNA accumulation by qPCR; assay type: cell-based, human cytomegalovirus; conditions: 96 hpi; Torin1 250 nM; 0.05 PFU/cell
Experimental: as §1
Determination of viral DNA and transcript accumulation in infected cells. The accumulation of viral DNA during HCMV infection was monitored by quantitative PCR (qPCR) as described previously (Terhune, et al. (2007) J. Virol. 81:3109-3123).
Briefly, primary human fibroblasts were infected with BADinGFP at a multiplicity of 0.05 PFU/cell. At the indicated times, cells were harvested by scraping them into medium and were stored as frozen cell pellets until analysis. Cell pellets were resuspended in 500 μl of a solution containing 400 mM NaCl, 10 mM Tris (pH 7.5), and 10 mM EDTA. […] For each sample, DNA was quantified by using a NanoDrop spectrophotometer (Thermo Scientific). […]
Viral DNA accumulation was measured by quantitative real-time PCR of fibroblasts treated with rapamycin or Torin1. […]

**Q.** With `CCC(=O)N1CCN(c2ccc(-n3c(=O)ccc4cnc5ccc(-c6cnc7ccccc7c6)cc5c43)cc2C(F)(F)F)CC1` [Torin1] as the compound, how does the “accumulation of early protein pUL44” value (HCMV [1]) read?
**A.** inhibited the accumulation of IE1 and pUL44 to a limited extent

**Q.** What about the “accumulation of immediate-early protein IE1” value (HCMV [1]) of the same compound?
**A.** inhibited the accumulation of IE1 and pUL44 to a limited extent

**Q.** And the “accumulation of late protein pUL99” value (HCMV [1])?
**A.** dramatically reduced

**Q.** And the “levels of UL99 mRNA” value (HCMV [2])?
**A.** decreased the levels of UL99 mRNA

**Q.** And the “association of 4EBP1 with m7GTP-Sepharose” value (eIF4F complex)?
**A.** substantially increased association

**Q.** What about the “association of eIF4G and eIF4A with the cap analog” value (eIF4F complex) of the same compound?
**A.** reduced association

**Q.** And the “reduction of viral DNA accumulation” value (HCMV [3])?
**A.** 150 fold
